From patent US4228160A (priority 1978, dated 1980)
Converted amounts (≈) assume the structure as drawn. Like-named read-outs stand apart in the source and are kept apart here.

Assays:
[1] = Solubility tests at different pH; assay type: physicochemical; details: pH=2
[2] = Stability in solubility test (thin layer chromatography); assay type: physicochemical; details: under the conditions of the solubility tests
[3] = Diffusion test through semipermeable membrane; assay type: physicochemical
From the text: The two sides of a diffusion cell are separated by a semipermeable membrane.

ovariectomized rat = experiment: Pregnancy protective activity in the ovariectomized rat; assay type: in vivo, rat (CFY strain); details: per os
From the text: Test animal: female rat of an average weight of 308 g., derived from 18 CFY strain
The ovary of the animals was removed on the 17th day of pregnancy and the animals were placed individually in cages.
6 animals were used as control.
On the 19th day and 20th day in the morning of the pregnancy the treatment was repeated.

inflammation = experiment: Speed of onset and duration of antiinflammatory activity, Carrageenin feet inflammation; assay type: in vivo, rat (female, strain CFY); details: simultaneous administration with Carrageenin (FIG. 5)
Protocol: The test compound, the reference substance, the animals, the treatment, doses, investigation are all the same as described above. The differences can be found below.
In this series of tests the following investigations were carried out:
2. Carrageenin was given 1, 2 and 3 hours after the administration of the antiinflammatory agent and the results were evaluated after 3 hours. The animals were exterminated with ether and the weight of the separated untreated feet and feet treated with Carrageenin was measured. The feet were separated above the metacarpus.
The weight difference of the untreated and treated feet in the same animal was calculated. […] The antiinflammatory activity was calculated in percent and the results are plotted in FIGS. 4 and 5.

in vivo = experiment: in vivo; set-up: species or system rat (CFY strain); details: rat, in vivo, po, 5 mg./kg. p.o.
Protocol: (§1) Subacute toxicity test was carried out in male and female animals derived from CFY strain and 10--10 animals were treated for each substance and for male and female rats each.
(§2) At the beginning of the investigation the animals were 7 weeks old and weighed 150-170 g. The animals were kept at a constant temperature (22°-24° C.) and under constant relative humidity (45-50%). During treatment the animals were on a standard diet and drank water ad libitum.
(§3) The animals were treated daily at the same time of the day, in the morning. The test compound and the reference substance were administered in the form of a suspension prepared with 1% methyl cellulose through an oesophagial sound. The animals of the control group obtained 1% methyl cellulose per os. The weight increase of the animals and their clinical states were registered during the treatment every week.
(§4) 1. Control: 1% methyl cellulose suspension 0.2 ml./100 g. per os;
(§5) Investigation: the animals were treated for 28 days.

rat [4] = experiment: in vivo; set-up: species or system rat (CFY strain)
Protocol: as §1, §2, §3, §4, §5

rat [5] = assay type: in vivo, rat (Long-Evans strain)
Protocol: As a reference compound pure Indomethacin is used.
Subacute toxicity test was carried out in male and female animals derived from Long-Evans strain, 10--10 animals were treated for each test compound and both for female and male animals. At the beginning of the test the animals were 7 week old, of an average bodyweight of 140-160 g. The animals were kept at constant temperature (22°-24° C.) and under constant relative humidity (45-50%). During the treatment the animals were on a standard diet and drank water ad libitum.
The subacute toxicity test corresponds to a 4 weeks' treatment period. The animals were treated daily at the same time in the morning. The complex of a molar ratio 1:1 and the reference substance were administered in the form of a suspension in 1% methyl cellulose through an oesophaged sound. The animals of the control group get 1% methyl cellulose per os. The weight increase and the clinical state of the animals were registered during the treatment every week.
1. Control: 1% methyl cellulose, 0.2 ml./100 g. per os
The animals were treated for 28 days. On the 29th day the living animals were exterminated with ether and the stomach and the duodenum were prepared. Also the stomach and duodenum of the animals perished during the treatment were prepared.
In each case the mucous membrane of the stomach, bile and intestine were examined macroscopically and the number of the eventual ulcers and erosions was determined.

[6] = cited from earlier work
[7] = aqueous solution, cited from earlier work
[8] = number related to treated animals, 28 days p.o., 40.3 mg./kg. CD-Ind or 5.0 mg./kg. Ind., control 0/10
[9] = 16 mg./kg. 1:1 complex or 5 mg./kg. Indomethacin p.o., control 0/10
[10] = 28 days, 16 mg./kg 1:1 complex or 5 mg./kg. Indomethacin p.o., control 0/10

COc1ccc2c(c1)c(CC(=O)O)c(C)n2C(=O)c1ccc(Cl)cc1 [Indomethacin, 1-(p-Chloro-benzoyl)-5-methoxy-2-methyl-indol-3-acetic acid]
solubility [1]: substantially insoluble
decomposition of Indomethacin [2]: not decomposed
time to equilibrium ([3]; pure buffer on other side): 4 h
distribution of Indomethacin ([3]; β-cyclodextrin buffer solution on other side, 4 hours): more Indomethacin on the β-cyclodextrin side after 4 hours, than on the Indomethacin side
foetus retention compared with the control (ovariectomized rat): significantly increased the percentage of the foetus retention
foeti left alive (ovariectomized rat; 1.25 mg./kg. Indomethacin on 18th day, repeated 19th and 20th day, dissected 21st day, control 16.1%): 58.8%
antiinflammatory activity 6 hours after treatment (inflammation): inflammation increases after 6 hours
mortality at 336 h (in vivo; by the 14th day, read-out: dead animals, male): 80%
mortality at 504 h (in vivo; by the 21st day, read-out: dead animals, female): 60%
erosion, female (rat [4]; [8]): 7/10
ulcer, female (rat [4]; [8]): 6/10
ulcer, male (rat [4]; [8]): 7/10
erosion, male (rat [4]; number related to treated animals, 28 days p.o., 40.3 mg./kg. CD-Ind or 5.0 mg./kg. Ind., control 1/10): 9/10
Average body weight (rat [4]; week 0, control 152.5): 164.5 g
Average body weight (rat [4]; week 0, control 154.5): 161.5 g
Average body weight (rat [4]; week 1, control 183.0): 182.0 g
Average body weight (rat [4]; week 1, control 196.5): 210.7 g
Average body weight (rat [4]; week 2, control 209.0): 177.5 g
Average body weight (rat [4]; week 2, control 240.5): 212.5 g
Average body weight (rat [4]; week 3, control 222.0): 206.5 g
Average body weight (rat [4]; week 3, control 276.5): 287.5 g
Average body weight (rat [4]; week 4, control 241.0): 221.2 g
Average body weight (rat [4]; week 4, control 300.5): 320.0 g
animals with ulcers, female (rat [5]; 5 mg./kg.): 70%
animals with ulcers, male (rat [5]; 5 mg./kg.): 80%
Lethality, 7th day, female (rat [5]; [9]): 1/10
Lethality, 7th day, male (rat [5]; [9]): 4/10
Lethality, 14th day, female (rat [5]; [9]): 2/10
Lethality, 14th day, male (rat [5]; [9]): 4/10
Lethality, 21st day, female (rat [5]; [9]): 3/10
Lethality, 21st day, male (rat [5]; [9]): 5/10
Lethality, 28th day, female (rat [5]; [9]): 6/10
Lethality, 28th day, male (rat [5]; [9]): 6/10
ulcer, female (rat [5]; [10]): 7/10
ulcer, male (rat [5]; [10]): 8/10
erosion, female (rat [5]; 28 days, 16 mg./kg 1:1 complex or 5 mg./kg. Indomethacin p.o., control 2/10): 10/10
erosion, male (rat [5]; 28 days, 16 mg./kg 1:1 complex or 5 mg./kg. Indomethacin p.o., control 3/10): 10/10
clinical symptoms (rat [5]; from third day, 5 mg./kg. Indomethacin or 16 mg./kg. 1:1 complex): bradypnoe and depression
original solubility ([6]; 35° C., aqueous, without cyclodextrin): 350 µM
solubility increased by cyclodextrin ([6]; aqueous solution with cyclodextrin): 980 µM (≈ 351 µg/mL)
solubility increase ([6]; with cyclodextrin vs original): 2.8 times
hydrolysis ([7]; in the presence of glucose): hydrolyses rapidly
hydrolysis ([7]; in the presence of α-cyclodextrin): slowly
hydrolysis ([7]; in the presence of β-cyclodextrin): inhibits hydrolysis
